Results taken from patent US20050215635A1, “Diarylheptanoid compounds and uses thereof” (priority 2004, published 2005).
Entries after “also recorded” stand apart in the source; their conditions may differ.

Assays:
[1] = tested on: Du-145 prostate tumor cells; assay: MTT-microculture tetrazolium cell viability assay / induction of apoptosis in Du-145; assay type: cell-based
Protocol: The rhizomes of Alpinia officinarum were purchased from Nuherbs Co. (Oakland, Calif.). Du-145 prostate tumor cells were obtained from the American Type Culture Collection (ATCC). Cells were maintained at 37° C. in an atmosphere of 5% CO2 and grown in Roswell Park Memorial Institute (RPMI) media 1640 (GIBCO/BRL) with 10% fetal bovine serum and with 5% penicillin and streptomycin.
The powdered roots of Alpinia officinarum were extracted with methanol and concentrated under vacuum using rotary evaporation. The dried residue was then partitioned with hexanes, ethyl acetate and 1-butanol successively. The three extracts were subjected to bioassays.
The dried ethyl acetate extract was then chromatographed on a normal phase silica gel column (2.5×30 cm) to perform bioassay-directed fractionation. The extract was first dissolved in methanol and loaded onto the column packing material. The prepared extract was then placed on top of the column and elution was performed using a solvent mixture of chloroform/methanol with an increasing amount of methanol (30:1, 20:1, 10:1, 5:1, 0:100; each 1000 mL). Successive fractions were collected and tested for biological activity. […] This fraction was then rechromatographed on a semipreparative Zorbax Rx-C18 reversed phase HPLC column (9.4 mm×240 mm, 5 μm) purchased from MacMod Analytical (Chadds Ford, Pa.). Compounds were eluted by an isocratic solvent system: 55% A, water with 0.05% formic acid (FA); 45% B, ACN (v/v) at a flow rate of 4 mL/min. The wavelength monitored was 205 nm. Successive fractions (1-3) were collected and sent for biological testing again.
Cellular growth in the presence or absence of experimental agents was determined using the modified method as previously described MTT-microculture tetrazolium assay (World Health Organization (ED.), Medicinal Plants in China, WHO Regional Publications, 1989, 21). Briefly, rapidly growing cells were harvested, counted, and inoculated at the appropriate concentrations (100 μL volume) into 96-well micro-titer plates using a multichannel pipet. After 24 hours, AO-1 to AO-5 were applied in different concentrations to triplicate culture wells, and cultures were incubated for 72 hours at 37° C. MTT ( Sigma, St. Louis, Mo.) was prepared at 2 mg/ml in Phosphate buffered saline (PBS) and 50 μL were added to microculture wells. After 4 hour incubation at 37° C., […] were removed from each well, and 150 μL of 100% DMSO were added to solubilize the MTT-formazan product. After thorough mixing with a mechanical plate mixer, absorbence was measured at 570 nm using a Dynatech microplate reader. […] This assay is based on the reduction of MTT tetrazolium salt to a formazan product by the metabolic activity of live cells and which was measured in a multiwell scanning spectrophotometer. Cell line growth and growth inhibition were expressed in terms of mean absorbance units and following the substraction of mean background absorbance.

[2] = tested on: p38 MAPK phosphorylation; assay: Western blotting of LPS induced phosphorylation of p38 MAPK in RAW 264.7 cells; assay type: cell-based, mouse; conditions: HMP 25 μM + LPS (0.5 μg/ml), RAW 264.7, 30 min and 60 min
Protocol: FIG. 5A and 5B. Effect of HMP on LPS induced MAPKs activation. FIG. 5A, Total protein lysates of RAW 264.7 were prepared after treatment with HMP and/or LPS for indicated times and 40 μg of protein lysates were resolved and probed for phosphorylated (pp44/42 and pp38) and basal p44/42 and p38, using specific monoclonal antibodies as described in material and methods. FIG. 5B, Integrated density of phosphorylated p44/42 (pp44/42) as measured by Scion software. This experiment was repeated 4 times with similar results.
At indicated time points, cells were rapidly washed with ice-cold PBS and solubilized in cold lysis buffer containing 10 mM Tris-base, 5 mM EDTA, 50 mM NaCl, 1% Triton X-100, 5 mM phenylmethylsulfonyl fluoride (PMSF), 2 mM sodium orthovanadate, 10 μg/ml leupeptin, 25 μg/ml aprotinin, 1 mM sodium pyrophosphate, and 20% glycerol. […]
Equal amount of protein (40 μg) from each sample was loaded on SDS-polyacrylamide electrophoresis gel (8 and 10% separating gels for iNOS and p42/44^MAPK, respectively) and resolved for 1.5 h at 120 V in buffer containing 95 mM Tris-HCl, 960 mM glycine, and 0.5% SDS. […] Specific bands were detected by enhanced chemiluminescence's detection system (Amersham-Pharmacia biotech, NJ, USA) and the membrane was exposed to X-ray film. […]

## COc1cc(CC/C=C/C(=O)CCc2ccccc2)ccc1O [AO-4, 7-(4″-hydroxy-3″-methoxyphenyl)-1-phenyl-hept-4-en-3-one]
[1]; Homo sapiens, Du-145 prostate tumor cells, MTT, 72 hours incubation, drug concentration giving 50% inhibition of growth, read-out: IC50 (μM), Effects of Diarylheptanoids on Inducing Apoptosis in DU-145 Cancer Cell Line
  IC50: 12.5 µM
[1]; bioassay-directed fractionation of Alpinia officinarum
  activity in bioassay: inducing apoptosis in Du-145 cancer cell line (in words): some activity; also recorded: most potent
[2]
  LPS induced phosphorylation of p38 (in words): no effect
